Reference: patent publication US12122761B2, “2-azaspiro[3.4]octane derivatives as M4 agonists” (NOVARTIS AG, priority 2019, dated 2024)

Legend:
[1] = biological target: T1, human cloned CHRM4 receptor (M4_CHO cells) (Homo sapiens, UniProt P08173); assay: CHRM4 Ca++ Flux Assay (agonist mode, FDSS 7000EX); format: cell-based; conditions: for Emax: Percent Activity, read-out: M4 FDSS PA; for EC50: geometric mean if tested more than once, read-out: M4 FDSS EC50
T1 construct: expressed in transfected cells; host or cells: CHO-K1
T1 sequence (P08173 1-479): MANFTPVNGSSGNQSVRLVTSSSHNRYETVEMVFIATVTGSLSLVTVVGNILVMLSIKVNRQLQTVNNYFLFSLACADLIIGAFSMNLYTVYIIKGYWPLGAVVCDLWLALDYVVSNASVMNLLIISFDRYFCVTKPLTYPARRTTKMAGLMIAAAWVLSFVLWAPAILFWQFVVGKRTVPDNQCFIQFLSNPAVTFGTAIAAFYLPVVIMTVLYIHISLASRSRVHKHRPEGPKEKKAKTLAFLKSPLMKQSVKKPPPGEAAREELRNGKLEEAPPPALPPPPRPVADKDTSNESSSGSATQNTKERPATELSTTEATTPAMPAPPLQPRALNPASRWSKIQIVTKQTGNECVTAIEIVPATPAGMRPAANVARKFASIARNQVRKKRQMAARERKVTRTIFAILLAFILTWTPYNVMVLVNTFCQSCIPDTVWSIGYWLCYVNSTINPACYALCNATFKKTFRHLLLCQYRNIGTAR
In short: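 M4_CHO cells loaded with a Ca++ dye for at least 1 h were held 60 min at room temperature in HEPES/probenecid buffer with 20 μM ATP. Ca++ flux after an 11-point compound dose, in triplicate and agonist mode, was recorded over 3 min. Four-parameter fits gave curves, with activity expressed relative to the Carbachol EC100.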

[2] = biological target: T2, Cloned human M1 receptor (CHRM1) stably expressed in HEK293 cells (Homo sapiens, UniProt P11229); assay: CHRM1 Ca++ Flux Assay (agonist mode, FDSS 7000EX); format: cell-based; conditions: for Emax: HEK293, Percent Activity, read-out: M1 FDSS PA; for EC50: geometric mean if tested more than once
T2 construct: expressed in transfected cells; host or cells: HEK293
T2 sequence (P11229 1-460): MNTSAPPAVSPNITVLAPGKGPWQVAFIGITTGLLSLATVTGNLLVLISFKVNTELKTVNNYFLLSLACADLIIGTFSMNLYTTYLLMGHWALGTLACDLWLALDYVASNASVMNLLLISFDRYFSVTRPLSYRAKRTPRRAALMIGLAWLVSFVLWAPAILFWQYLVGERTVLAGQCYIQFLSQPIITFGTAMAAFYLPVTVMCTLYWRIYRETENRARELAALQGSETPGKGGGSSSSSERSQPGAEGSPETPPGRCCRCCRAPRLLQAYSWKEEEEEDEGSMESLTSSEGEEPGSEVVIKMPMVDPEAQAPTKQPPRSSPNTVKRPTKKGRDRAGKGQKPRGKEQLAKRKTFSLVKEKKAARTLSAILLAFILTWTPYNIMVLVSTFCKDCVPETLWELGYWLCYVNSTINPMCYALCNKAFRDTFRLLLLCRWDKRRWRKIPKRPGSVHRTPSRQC
In short: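 Compounds tested as agonists at 11 concentrations in triplicate, with calcium traces captured over 3 minutes. Cells were HEK293 with stable human CHRM1 expression, plated overnight at 25K/well and loaded with calcium dye. Responses normalized to carbachol EC100 and fitted by four-parameter nonlinear regression.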

For `COc1ccccc1C1CCN([C@@H]2CCC3(C2)CN(c2cccnc2)C3)CC1` [Example 5K, (R)-6-(4-(2-methoxyphenyl)piperidin-1-yl)-2-(pyridin-3-yl)-2-azaspiro[3.4]octane], the Emax [1] was 64%, the EC50 [1] was 9 nM and the Emax [2] was 54%. It also gave an EC50 [2] of 284 nM.
For `Cc1ccc(N2CC3(CC[C@@H](N4CCC(c5ccccc5O[C@@H]5CCOC5)CC4)C3)C2)cn1` [Example 5L, (R)-2-(6-methylpyridin-3-yl)-6-(4-(2-(((R)-tetrahydrofuran-3-yl)oxy)phenyl)piperidin-1-yl)-2-azaspiro[3.4]octane], the Emax [1] was 61%, the EC50 [1] was 29 nM and the Emax [2] was 0%. The EC50 [2] was > 25000 nM.
In the case of `COc1ccccc1C1CCN([C@@H]2CCC3(C2)CN(c2ncnc(C)n2)C3)CC1` [Example 5M, (R)-6-(4-(2-methoxyphenyl)piperidin-1-yl)-2-(4-methyl-1,3,5-triazin-2-yl)-2-azaspiro[3.4]octane], the Emax [1] is reported as 43%, the EC50 [1] is reported as 51 nM and the Emax [2] is reported as 0%. For the same compound, the EC50 [2] was > 25000 nM.
For `COc1ccccc1C1CCN([C@@H]2CCC3(C2)CN(c2ccc(Cl)nn2)C3)CC1` [Example 5N, (R)-2-(6-chloropyridazin-3-yl)-6-(4-(2-methoxyphenyl)piperidin-1-yl)-2-azaspiro[3.4]octane], the Emax [1] was 50%, the EC50 [1] was 26 nM and the Emax [2] was 0%. The EC50 [2] was > 25000 nM.
`COc1ccccc1C1CCN([C@@H]2CCC3(C2)CN(c2cccnn2)C3)CC1` [Example 5O, (R)-6-(4-(2-methoxyphenyl)piperidin-1-yl)-2-(pyridazin-3-yl)-2-azaspiro[3.4]octane] gave an Emax [1] of 39%, an EC50 [1] of 55 nM and an Emax [2] of 27%. For the same compound, the EC50 [2] was 1340 nM.
`COc1ccc(Cl)cc1C1CCN([C@@H]2CCC3(C2)CN(c2ccnnc2)C3)CC1` [Example 5P, (R)-6-(4-(5-chloro-2-methoxyphenyl)piperidin-1-yl)-2-(pyridazin-4-yl)-2-azaspiro[3.4]octane] gave an Emax [1] of 55%, an EC50 [1] of 43 nM and an Emax [2] of 60%. It also gave an EC50 [2] of 196 nM.
For `c1ccc(C2CCN([C@@H]3CCC4(C3)CN(c3ncncn3)C4)CC2)c(OCC2CCOCC2)c1` [Example 5Q, (R)-6-(4-(2-((tetrahydro-2H-pyran-4-yl)methoxy)phenyl)piperidin-1-yl)-2-(1,3,5-triazin-2-yl)-2-azaspiro[3.4]octane], the Emax [1] was 54%, the EC50 [1] was 21 nM and the Emax [2] was 0%. For the same compound, the EC50 [2] was > 25000 nM.
Compound `COc1ccccc1C1CCN([C@@H]2CCC3(C2)CN(c2cc(Cl)nnc2Cl)C3)CC1` [Example 5R, (R)-2-(3,6-dichloropyridazin-4-yl)-6-(4-(2-methoxyphenyl)piperidin-1-yl)-2-azaspiro[3.4]octane] has an Emax [1] of 51%, an EC50 [1] of 131 nM and an Emax [2] of 41%. For the same compound, the EC50 [2] was 2030 nM.
Compound `COc1ccccc1C1CCN([C@@H]2CCC3(C2)CN(c2ccnnc2)C3)CC1` [Example 5S, (R)-6-(4-(2-methoxyphenyl)piperidin-1-yl)-2-(pyridazin-4-yl)-2-azaspiro[3.4]octane] has an Emax [1] of 55%, an EC50 [1] of 129 nM and an Emax [2] of 45%. For the same compound, the EC50 [2] was 1040 nM.
